Where two headings read alike, the source gives them in different places.
Key:
[1] = target: homophthalazine binding site; experiment: Displacement of 3H-girisopam from the homophthalazine binding site in rat brain striatal membrane preparation; conditions: displacing 5 nM 3H-girisopam
Protocol: Ki values were calculated according to the following equation: Ki = IC50 :(1 +([L])/(KD)), [formula] wherein KD is the dissociation constant of the labelled ligand-receptor complex, [L] is the concentration of the labelled ligand and IC50 is the half maximal inhibitory concentration of the test compound.

Catalepsy in mice = experiment: Cataleptic effect in mice (Schlichtegroll); type: in vivo; conditions: p.o.
Protocol: (§1) The cataleptic effect of the compounds was measured both in mice (Schlichtegroll: Arzneim. Forsch., 8, 489, [1958]) and in rats (Morpurgo: Arch. Int. Pharmacodyn., 137, 87, [1962]).

Catalepsy in rats = experiment: Cataleptic effect in rats (Morpurgo); type: in vivo; conditions: p.o.
Protocol: as §1

[2] = test system: spontaneous motor activity (SMA) in mice; experiment: Behavioural effects according to Irwin (decrease in spontaneous motor activity); type: in vivo; parameters: key: ++ strong; + moderate; +- slight decrease in spon-taneous motor activity [SMA]
Protocol: (§2) The behavioural effects of 1-[2'-(substituted) vinyl]-5H-2,3-benzodiazepine derivatives according to the invention and of reference substances were measured according to the method of Irwin (Psychopharmacology, 13, 222 [1968]). The results and the acute toxicity data (dead/treated animals, shown in brackets) can be seen in the following Table II
(§3) From the above Table II it can be taken that the 1-[2'-(substituted) vinyl]-5H-2,3-benzodiazepine derivatives according to the invention considerably decrease the spontaneous motor activity (SMA) in mice after intraperitoneal or oral administration.

mice = experiment: Acute toxicity (dead/treated animals) in the Irwin test; type: in vivo
Protocol: as §2, §3

[3] = test system: spontaneous motor activity of mice; experiment: Inhibition of spontaneous motor activity according to Borsy et al.; type: in vivo; conditions: Mus musculus, po, 0.5 h
Protocol: The potential antipsychotic activity of 1-[2'-(substituted) vinyl]-5H-2,3-benzodiazepine derivatives according to the invention and of reference substances was tested according to the method of Puech et al. (Psychopharmacology, 75, 84, [1981] by measuring their inhibiting effect on the "climbing" reaction induced by 5,6,6a,7-tetra-(hydro)-6-(methyl)-4H-dibenzo[de,g]quinoline-10,11-di-(ol){apomorphine}. The results have been expressed as ED50 values. Since the inhibition of the spontaneous motor activity (SMA) is an important characteristic of the antipsychotic drugs, the ED50 values of a number of compounds were determined according to the method of Borsy et al. (Arch. Int. Pharmacodyn., 124, 1, 196).
The effect of the 1-[2'-(substituted) vinyl]-5H-2,3-benzodiazepine derivatives according to the invention on the spontaneous motor activity was tested according to the method of Borsy et al. Groups consisting of 3 mice were treated orally with different doses of the compounds to be tested. Then the animals were placed into a 10-channel Dews system equipment, wherein the number of interruptions of infrared beam within 30 minutes was counted. […]

rats = experiment: Elevated plus-maze test (Pellow), anxiolytic activity; type: in vivo; conditions: Rattus norvegicus, po, 1 h; p.o., elevated plus maze, Sprague Dawley rats, 60 minutes pretreatment, significant increase of time spent on open arms; read-out: Minimum effective dose
Text: The anxiolytic activity was studied in rats according to the "lick-conflict" test elaborated by Vogel et al. (Psychopharmacology, 21, 1, [1971] and the elevated plus-maze test described by Pellow (Pellow, J.: Neurosci. Meth. 14, 149, [1985]). The antiaggressive effect was investigated in mice using the "fighting behaviour" method of Tedeschi (J. Pharm. Exp. Ther., 125, 28, [1959]). The minimal effective dose (MED) values and the ED50 values obtained are shown in the following Table V.
The anxiolytic activity of these compounds was investigated in the elevated plus maze test. Male rats belonging to the Sprague Dawley strain and weighing 220 to 260 g were used as test animals. The test was carried out with the aid of a wooden plus-shaped maze elevated to a height of 50 cm and containing two enclosed and two open arms (50 cm long and 15 cm wide). After 60 minutes pretreatment the animals were placed into the maze and observed for 5 minutes. The drug effect was expressed as percent increase of the time spent on the open arms and number of open arm entries. The minimum effective dose (MED) which caused a significant increase of the time spent on the open arms was calculated for every substance [Pelow, S., Chopin, P., File, S.E., Briley, M.: J. Neurosci. Methods 14, 149 to 167 [1985]).

[4] = p.o., mice, interruptions of infrared beam within 30 minutes, read-out: ID50 (the source's name)

SMILES	Ki [1] [nM]	Behaviour ([2]; 300 mg/kg i.p.)	Behaviour ([2]; 1000 mg/kg p.o.)	acute toxicity (dead/treated animals) (mice; 300 mg/kg i.p.)	acute toxicity (dead/treated animals) (mice; 1000 mg/kg p.o.)	other results
COc1ccc(C=CC2=NN=C(C)Cc3cc(OC)c(OC)cc32)cc1 [Example 9]	18	–	–	–	–	–
COc1cc2c(cc1OC)C(C=Cc1ccc([N+](=O)[O-])cc1)=NN=C(C)C2 [Example 12]	17	–	–	–	–	–
COc1ccc(C=CC2=NN=C(C)Cc3cc(OC)c(OC)cc32)cc1C [Example 14]	16	–	–	–	–	–
COc1cc2c(cc1OC)C(C=Cc1ccc(OC(C)C)cc1)=NN=C(C)C2 [Example 15]	13	–	–	–	–	–
COc1cc2c(cc1OC)C(C=Cc1cccc(OC(C)C)c1)=NN=C(C)C2 [Example 16]	11	–	–	–	–	–
COc1cc2c(cc1OC)C(C=Cc1ccccc1OC(C)C)=NN=C(C)C2 [Example 18]	18	–	–	–	–	–
COc1cc2c(cc1OC)C(C=Cc1ccc3c(c1OC)OCO3)=NN=C(C)C2 [Example 21]	8	–	–	–	–	Catalepsy in mice Minimal effective dose [MED] (Catalepsy in mice): >100 mg/kg; Catalepsy in rats Minimal effective dose [MED] (Catalepsy in rats): >100 mg/kg
COc1cc2c(cc1OC)C(C=Cc1ccc(F)cc1)=NN=C(C)C2 [Example 28]	12	–	–	–	–	–
COc1cc2c(cc1OC)C(C=Cc1ccccc1)=NN=C(C)C2 [Example 33]	12	–	–	–	–	–
COc1cc2c(cc1OC)C(C=Cc1ccccc1Br)=NN=C(C)C2 [Example 36]	10	–	–	–	–	–
CCC1C(C)=NN=C(C=Cc2ccc(N(C)C)cc2)c2cc(OC)c(OC)cc21 (stereo not shown) [Example 37]	–	+ +	+ +	0/5	4/5	–
COc1cc2c(cc1OC)C(C=Cc1ccc(OC)c(C(C)C)c1)=NN=C(C)C2 [Example 40]	–	+ +	+ +	0/5	4/5	–
CCCc1cc(C=CC2=NN=C(C)Cc3cc(OC)c(OC)cc32)ccc1OC [Example 41]	16	–	–	–	–	–
COc1cc2c(cc1OC)C(C=Cc1ccccc1C)=NN=C(C)C2 [Example 42]	11	+ +	+ +	0/5	0/5	–
COc1cc2c(cc1OC)C(C=Cc1ccc(C(F)(F)F)cc1)=NN=C(C)C2 [Example 45]	15	–	–	–	–	–
CCC1C(C)=NN=C(C=Cc2cccc(Cl)c2)c2cc(OC)c(OC)cc21 (stereo not shown) [Example 48]	19	+	+-	0/5	0/5	–
CCN(CC)c1ccc(C=CC2=NN=C(C)Cc3cc(OC)c(OC)cc32)cc1 [Example 49]	10	+ +	+ +	0/5	3/5	–
COc1cc2c(cc1OC)C(C=Cc1cccc(Cl)c1)=NN=C(C)C2 [Example 51]	19	+	+ +	0/6	0/6	Catalepsy in mice Minimal effective dose [MED] (Catalepsy in mice): 100 mg/kg; Catalepsy in rats Minimal effective dose [MED] (Catalepsy in rats): >100 mg/kg

SMILES	Ki [1] [nM]	Behaviour ([2]; 300 mg/kg i.p.)	Behaviour ([2]; 1000 mg/kg p.o.)	acute toxicity (dead/treated animals) (mice; 300 mg/kg i.p.)	acute toxicity (dead/treated animals) (mice; 1000 mg/kg p.o.)	other results
COc1cc2c(cc1OC)C(C=Cc1ccccc1Cl)=NN=C(C)C2 [Example 54]	–	+	+	2/5	2/5	–
COc1ccc(C=CC2=NN=C(C)Cc3cc(OC)c(OC)cc32)cc1Cl [Example 55]	11	–	–	–	–	–
COc1cc(OC)c(C=CC2=NN=C(C)Cc3cc(OC)c(OC)cc32)c(OC)c1 [Example 58]	19	+	+ +	0/5	0/5	–
COc1cc(OC)c(OC)cc1C=CC1=NN=C(C)Cc2cc(OC)c(OC)cc21 [Example 59]	16	–	–	–	–	–
CCC1C(C)=NN=C(C=Cc2ccc(OC)c(OC)c2)c2cc(OC)c(OC)cc21 (stereo not shown) [Example 64]	–	+	+-	0/5	0/5	–
COc1cc2c(cc1OC)C(C=Cc1ccc3c(c1)OCO3)=NN=C(C)C2 [Example 67]	5	+-	+	0/6	0/6	Catalepsy in mice Minimal effective dose [MED] (Catalepsy in mice): >100 mg/kg; Catalepsy in rats Minimal effective dose [MED] (Catalepsy in rats): >100 mg/kg
COc1cc2c(cc1OC)C(C=Cc1c[nH]c3ccccc13)=NN=C(C)C2 [Example 71]	5	–	–	–	–	–
COc1cc2c(cc1OC)C(C=Cc1cccc(N)c1)=NN=C(C)C2 [Example 74]	14	–	–	–	–	–
COc1cc2c(cc1OC)C(C=Cc1ccc(Cl)c(N)c1)=NN=C(C)C2 [Example 77]	10	+ +	+ +	0/5	0/5	–
COc1cc2c(cc1OC)C(C=Cc1ccc(Cl)c(NC(C)=O)c1)=NN=C(C)C2 [Example 85, 1-[3'-(Acetylamino)-4-(chloro)-styryl]-4-[methyl]-7,8-di-[methoxy]-5H-2,3-benzodiazepine]	14	+-	+	0/5	0/5	–
CC1=NN=C(C=Cc2ccc(F)cc2)c2cc3c(cc2C1)OCO3 [Example 86, 1-[4'-(Fluoro)-styryl]-4-[methyl]-7,8-[methylenedioxy]-5H-2,3-benzodiazepine]	–	–	–	–	–	ED50 [3, 4]: > 100 mg/kg; minimal effective dose (rats): 0.003 mg/kg
CC1=NN=C(C=Cc2ccc(C(F)(F)F)cc2)c2cc3c(cc2C1)OCO3 [Example 87, 1-[4'-(Trifluoromethyl)-styryl]-4-[methyl]-7,8-[methylenedioxy]-5H-2,3-benzodiazepine]	–	–	–	–	–	ED50 [3, 4]: > 100 mg/kg; minimal effective dose (rats): 0.1 mg/kg
CC1=NN=C(C=Cc2ccc(C#N)cc2)c2cc3c(cc2C1)OCO3 [Example 88, 1-[4'-(Cyano)-styryl]-4-[methyl]-7,8-[methylenedioxy]-5H-2,3-benzodiazepine]	–	–	–	–	–	ED50 [3, 4]: > 100 mg/kg
CC1=NN=C(C=Cc2cccc(F)c2)c2cc3c(cc2C1)OCO3 [Example 89, 1-[3'-(Fluoro)-styryl]-4-[methyl]-7,8-[methylenedioxy]-5H-2,3-benzodiazepine]	–	–	–	–	–	minimal effective dose (rats): 0.3 mg/kg
CC1=NN=C(C=Cc2ccccc2F)c2cc3c(cc2C1)OCO3 [Example 90, 1-[2'-(Fluoro)-styryl)-4-[methyl]-7,8-[methylenedioxy]-5H-2,3-benzodiazepine]	–	–	–	–	–	minimal effective dose (rats): 0.3 mg/kg
CC1=NN=C(C=Cc2ccc(F)cc2)c2c(ccc3c2OCO3)C1 [Example 91, 1-[4'-(Fluoro)-styryl]-4-[methyl]-8,9-[methylenedioxy]-5H-2,3-benzodiazepine]	–	–	–	–	–	ED50 [3, 4]: > 100 mg/kg
CC1Cc2cc3c(cc2C(C=Cc2ccc(F)cc2)=NN1)OCO3 (stereo not shown) [Example 92, 1-[4'-(Fluoro)-styryl]-4-[methyl]-7,8-[methylenedioxy]-3,4-di-[hydro]-5H-2,3-benzodiazepine]	–	–	–	–	–	minimal effective dose (rats): 1 mg/kg
CN1C(=O)CN=C(c2ccccc2)c2cc(Cl)ccc21 [diazepam, 7-(chloro)-2,3-di-(hydro)-1-(methyl)-5-(phenyl)-1H-1,4-benzodiazepin-2-(one), reference compound]	–	–	–	–	–	ED50 ([3]; read-out: ID50): 23 mg/kg
